What was measured:
MDA-MB-231 cells [1] = test: Apoptosis analysis by fluorescence staining (Hoechst 33258); assay type: cell-based, human; details: MDA-MB-231, 20 μM, 24 hours
Description: (§1) MDA-MB-231 cells were treated with 20 μM ciclesonide or A549 cells were treated with 30 μM ciclesonide, for 24 hours and the cells were incubated in 10 mg/ml of a Hoechst 33258 solution at 37° C. for 30 minutes. Subsequently, the cells were observed using a fluorescence microscope.

A549 cells [2] = test: as above; assay type: cell-based, human; details: A549, 30 μM, 24 hours
Description: as §1

MDA-MB-231 cells [3] = test: Breast cancer cell proliferation assay (MTS); assay type: cell-based, human; details: MDA-MB-231, 48 hours after treatment
Description: (§2) The proliferation rates of MCF-7 cells and MDA-MB-231 cells were measured using a CellTiter 96® aqueous one solution cell proliferation kit. The MCF-7 cells or the MDA-MB-231 cells were cultured in a 96-well plate for 48 hours in the presence of ciclesonide at concentrations of 0 μM, 5 μM, 10 μM, 20 μM, 40 μM, and 80 μM. In accordance with the manufacturer's protocol, absorbance at 490 nm was determined using a 96-well plate reader (Dynex Revelation, Dynex Ltd., Billingshurst, UK). Respective data was determined by measuring three sets.

MCF-7 cells [4] = test: Breast cancer cell proliferation assay (MTS); assay type: cell-based, human; details: MCF-7, 48 hours after treatment
Description: as §2

MCF-7 cells [5] = test: ALDEFLUOR analysis, breast cancer cells; assay type: cell-based, human; details: 24 hours
Description: An ALDEFLUOR analysis system provides a novel approach to the identification, evaluation, and isolation of CSCs based on the activity of aldehyde dehydrogenase (ALDH). BODIPY-aminoacetaldehyde as an active reagent was added to breast cancer cells or lung cancer cells, and converted into fluorescent BODIPY-aminoacetate by ALDH. Diethylaminobenzaldehyde (DEAB), which is an ALDH inhibitor, was used as a negative control. MCF-7 cells or A549 cells were treated with 10 μM or 20 μM ciclesonide for 24 hours, and the proportion of ALDH-positive cells was analyzed by ALDEFLUOR assay. ALDH-positive and negative cells were sorted by C6 Accuri flow cytometry (BD Bioscience).

STAT3 = test: Electrophoretic mobility shift assay (EMSA) of mammosphere nuclear extract; assay type: cell-based, human; details: ciclesonide-treated mammosphere nuclear extract
MDA-MB-231 cells [6] = test: Caspase-3/7 analysis (Caspase-Glo 3/7); assay type: cell-based, human; details: MDA-MB-231, 40 μM and 80 μM, 24 hours
Description: (§3) Breast cancer cells and lung cancer cells were treated with ciclesonide at different concentrations for 24 hours. Caspase-3/7 activity was measured in accordance with the manufacturer's protocol for the Caspase-Glo 3/7 kit (Promega, Wisconsin, USA). 100 μl of a Caspase-Glo 3/7 reagent was added to a 96-well plate where cancer cells were cultured. The plate was covered with a plate sealer, followed by culture at room temperature for 1 hour, and measured using a plate-reading luminometer, GloMax® Explorer (Promega, Wisconsin, USA).

A549 cells [7] = test: Caspase-3/7 analysis (Caspase-Glo 3/7); assay type: cell-based, human; details: A549, 80 μM, 24 hours
Description: as §3

mammospheres = test: Mammosphere proliferation (cell counting); assay type: cell-based, human; details: mammospheres treated 2 days, single cells replated and counted
Description: FIG. 6B illustrates the effect of ciclesonide on mammosphere growth wherein ciclesonide inhibits the growth of mammospheres, mammospheres having been treated with ciclesonide or DMSO for 2 days were separated into single cells and plated in 6 cm dishes at the same density. 24 hours after plating, the cells were counted, on days 2 and 3, the cells were counted three times, and plotted as mean values, and the data was expressed as the mean±SD for the three independent experimental results. *p<0.05 vs. DMSO-treated control.

[8] = system: MCF-7 cell xenograft tumor; test: Breast cancer xenograft model in NOD-SCID female nude mice; assay type: in vivo; details: MCF-7 xenograft, 10 mg/kg
Description: A total of 12 NOD-SCID (BALB/cSIc (nu/nu)) female nude mice producing breast cancer cells were divided into two groups. […] The volume of tumors of each control mouse was measured every three days and calculated by the following equation: (width×length^2)/2. The other six nude mice received neoadjuvant chemotherapy using a test drug by infusion at an optimum dose of 10 mg/kg/day.

MDA-MB-231 cells [9] = test: Annexin V/PI staining, FACS; assay type: cell-based, human; details: MDA-MB-231, 20 μM, 24 hours
Description: (§4) Cancer cells were cultured in a 6-well plate for 24 hours along with 20 μM of ciclesonide for the case of breast cancer and 10 μM or 20 μM of ciclesonide or DMSO for the case of lung cancer. In accordance with the manufacturer's protocol, apoptotic cells were double-stained with PI and FITC-Annexin V. The sample was analyzed by flow cytometry (Accuri C6, BD, San Diego, Calif., USA).

A549 cells [10] = test: Annexin V/PI staining, FACS; assay type: cell-based, human; details: A549, 10 μM and 20 μM, 24 hours
Description: as §4

CC(C)C(=O)OCC(=O)[C@@]12O[C@H](C3CCCCC3)O[C@@H]1C[C@H]1[C@@H]3CCC4=CC(=O)C=C[C@]4(C)[C@H]3[C@@H](O)C[C@@]12C [ciclesonide]
formation of apoptotic bodies (MDA-MB-231 cells [1]): apoptotic bodies were formed
formation of apoptotic bodies (A549 cells [2]): apoptotic bodies were formed
concentration at which growth of the cell line was inhibited in a concentration-dependent manner (MDA-MB-231 cells [3]): ≥ 10 µM
concentration at which growth of the cell line was inhibited in a concentration-dependent manner (MCF-7 cells [4]): ≥ 10 µM
proportion of ALDH-positive breast cancer cells (MCF-7 cells [5]): reduced
binding between the biotin-labeled SIE probe and Stat3 (STAT3): inhibited
caspase 3/7 activity (MDA-MB-231 cells [6]): induced
caspase 3/7 activity (A549 cells [7]): induced
proliferation of mammospheres (mammospheres): significantly reduced
tumor volume vs control not treated [8]: smaller
tumor weight vs control not treated [8]: smaller
number of apoptotic breast cancer cells (annexin V+) (MDA-MB-231 cells [9]): increased
number of apoptotic lung cancer cells (annexin V+) (A549 cells [10]): increased

Source: patent US11191746B2, “Composition for inhibiting a growth of cancer stem cells comprising ciclesonide” (JEJU NATIONAL UNIVERSITY INDUSTRY-ACADEMIC COOPERATION …, priority 2016, dated 2021)
